Legend:
[1] = CodeBreaK 100 multiple-dose PK; format: in vivo, human; settings: for AUC(0-t) / Cmax / Tmax / half-life: human, plasma, po
[2] = tested on: Beagle dogs; settings: 3-month dog study; cited from earlier work
[3] = tested on: rats; assay: 3-month rat toxicology study; format: in vivo
[4] = Clinical pharmacology: elimination, food effect, covariate effects on exposure; settings: human, in vivo
[5] = tested on: patients with NSCLC; assay: CodeBreaK 100; format: in vivo
[6] = target: CYP3A4 (Homo sapiens, UniProt P08684); assay: Metabolism of sotorasib; format: in vitro ADME
Chain of CYP3A4 (P08684 whole entry): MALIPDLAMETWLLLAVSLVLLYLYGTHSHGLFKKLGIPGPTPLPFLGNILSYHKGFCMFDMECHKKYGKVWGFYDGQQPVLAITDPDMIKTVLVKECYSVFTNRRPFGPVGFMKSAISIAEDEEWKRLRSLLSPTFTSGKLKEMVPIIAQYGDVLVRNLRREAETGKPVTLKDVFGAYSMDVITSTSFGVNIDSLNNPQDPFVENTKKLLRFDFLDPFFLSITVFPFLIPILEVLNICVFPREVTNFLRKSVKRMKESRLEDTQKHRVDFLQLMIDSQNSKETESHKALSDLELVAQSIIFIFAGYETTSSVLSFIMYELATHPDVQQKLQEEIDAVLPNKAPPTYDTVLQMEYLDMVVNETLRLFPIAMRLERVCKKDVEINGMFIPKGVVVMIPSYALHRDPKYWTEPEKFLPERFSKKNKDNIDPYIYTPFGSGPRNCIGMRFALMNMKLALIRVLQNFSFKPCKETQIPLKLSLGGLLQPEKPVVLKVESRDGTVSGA

[7] = 204 patients with NSCLC, 960 mg daily

C=CC(=O)N1CCN(c2nc(=O)n(-c3c(C)ccnc3C(C)C)c3nc(-c4c(O)cccc4F)c(F)cc23)[C@@H](C)C1 [sotorasib]
Systemic exposures (AUC0–24h and Cmax) across dose levels ([1]; daily doses ranging from 180 mg to 960 mg): similar | AUC(0-t) ([1]; 180 mg): 31700 ng·h/mL | Cmax ([1]; 180 mg): 6440 ng/mL | Tmax ([1]; 180 mg): 0.73 h | half-life ([1]; 180 mg): 5.13 h | AUC(0-t) ([1]; 360 mg): 38900 ng·h/mL | Cmax ([1]; 360 mg): 6310 ng/mL | half-life ([1]; 360 mg): 5.53 h | AUC(0-t) ([1]; 720 mg): 42100 ng·h/mL | Cmax ([1]; 720 mg): 5450 ng/mL | Tmax ([1]; 720 mg): 1.1 h | half-life ([1]; 720 mg): 4.75 h | AUC(0-t) ([1]; 960 mg): 32400 ng·h/mL | Cmax ([1]; 960 mg): 5390 ng/mL | Tmax ([1]; 960 mg): 1.1 h | half-life ([1]; 960 mg): 5.07 h | Renal toxicity [2]: not identified | Most notable toxicity (renal toxicity) findings ([3]; 3-month rat study): renal tubular degeneration/necrosis and increased kidney weight with biomarkers of renal tubular injury | Recovery of renal toxicity ([3]; after two months): Partial recovery | Food effect on administration [4]: may be taken with or without food | Route of elimination [4]: mainly eliminated via the fecal route with minor renal excretion | Adverse event: abdominal pain [5, 7]: 15% | Adverse event: constipation [5, 7]: 16% | Adverse event: cough [5, 7]: 20% | Adverse event: decreased appetite [5, 7]: 13% | Adverse event: diarrhea [5, 7]: 42% | Adverse event: dyspnea [5, 7]: 16% | Adverse event: edema [5, 7]: 15% | Adverse event: musculoskeletal pain [5, 7]: 35% | Adverse event: pneumonia [5, 7]: 12% | Adverse event: rash [5, 7]: 12% | Adverse event: vomiting [5, 7]: 17% | Discontinuation due to hepatotoxicity [5, 7]: 4.9% | Permanent discontinuation due to an AE [5, 7]: 9% | Serious AE: diarrhea [5, 7]: 2% | Serious AE: hepatotoxicity [5, 7]: 3.4% | Serious AE: pneumonia [5, 7]: 8% | Serious AEs, patients [5, 7]: 50% | Adverse event: hepatotoxicity ([5]; 204 patients with NSCLC, 960 mg daily, grouped term): 25% | Resolution of hepatotoxicity after dose reduction or interruption ([5]; cases with dose reduction or interruption): 91% | Patients with hepatotoxicity requiring dose reduction or interruption ([5]; of the 50 patients with an event of hepatotoxicity (n=23)): 46% | Patients with hepatotoxicity treated with systemic corticosteroids ([5]; of the 357 patients treated with 960 mg daily): 5% | Most common adverse reactions (≥20%) ([5]; patients with NSCLC in CodeBreaK 100): diarrhea, musculoskeletal pain, nausea, fatigue, hepatotoxicity, and cough | Hepatotoxicity events that were severe (Grade 3 or 4) ([5]; primary safety population): 12% | Renal toxicity events ([5]; primary safety population): rare, mild to moderate, and did not require dose reduction or discontinuation | Interstitial lung disease/pneumonitis ([5]; primary safety population, three patients, one fatal case): 1.5% | Main metabolising enzyme [6]: primarily metabolized by CYP3A4

— PMC9012672 (Clinical cancer research : an official journal of the …, 2022)
